Test results published in patent US11584765B2 (priority 2017, dated 2023).

Tested on: C57BL/6 mice
Experiment: animal or person
Type: in vivo
Conditions: Mus musculus, sc, 0.5 h, s.c. administration, 30 min, 55° C. water, read-out: ED50 (mg/kg) at 30 min on C57BL/6 mice in Warm-water Tail-flick Test

Q: `CC(=O)Nc1ccc(CN2CCC(CCc3ccccc3)(C3OC3C)CC2)cc1` (centres unmarked) [Compound 118, N-(4-((4-(3-methyloxiran-2-yl)-4-phenethylpiperidin-1-yl)methyl)phenyl)acetamide] was tested. Which ED50 did it give?
A: > 10 mg/kg

Q: With `CCNc1ccc(CN2CCC(CCc3ccccc3)(CNC)CC2)cc1` [Compound 119, N-ethyl-4-((4-((methylamino)methyl)-4-phenethylpiperidin-1-yl)methyl)aniline] as the compound, how does the ED50 read?
A: > 10 mg/kg

Q: How did the ED50 turn out when `CC(=O)Nc1ccc(CN2CCC(CCc3ccccc3)(C3CCO3)C2)cc1` (centres unmarked) [Compound 120, N-(4-((3-(oxetan-2-yl)-3-phenethylpyrrolidin-1-yl)methyl)phenyl)acetamide] was run?
A: < 10 mg/kg

Q: For `CCOCC1(CCc2ccccc2)CCN(CC2CCC(NC(C)=O)CC2)CC1.Cl` (centres unmarked) [Compound 121, N-(4-((4-(ethoxymethyl)-4-phenethylpiperidin-1-yl)methyl)cyclo-hexyl)acetamide HCl], which ED50 is on record?
A: > 10 mg/kg

Q: `CCOCC1(OCc2ccccc2)CCN(Cc2ccc(NC(C)=O)cc2)CC1` [Compound 122, N-(4-((4-(benzyloxy)-4-(ethoxymethyl)piperidin-1-yl)methyl)phenyl)acetamide] was tested. Which ED50 did it give?
A: > 10 mg/kg

Q: With `CC(=O)Nc1ccc(CN2CCC(CCc3ccccc3)(COc3ccccn3)CC2)cc1` [Compound 123, N-(4-((4-phenethyl-4-((pyridin-2-yloxy)methyl)piperidin-1-yl)methyl)phenyl)acetamide] as the compound, how does the ED50 read?
A: > 10 mg/kg

Q: How did the ED50 turn out when `CC(=O)Nc1ccc(CN2CCC(CCc3ccccc3)(Oc3ccccn3)CC2)cc1` [Compound 124, N-(4-((4-phenethyl-4-(pyridin-2-yloxy)piperidin-1-yl)methyl)phenyl)acetamide] was run?
A: > 10 mg/kg

Q: With `CCOCC1(CCc2ccccc2)CCN(c2ccc(NC(C)=O)cc2)CC1` [Compound 125, N-(4-(4-(ethoxymethyl)-4-phenethylpiperidin-1-yl)phenyl)acetamide] as the compound, how does the ED50 read?
A: > 10 mg/kg

Q: How did the ED50 turn out when `CCOCC1(CCc2ccccc2)CCN(CCc2ccc(NC(C)=O)cc2)CC1` [Compound 126, N-(4-(2-(4-(ethoxymethyl)-4-phenethylpiperidin-1-yl)ethyl)phenyl)acetamide] was run?
A: > 10 mg/kg

Q: For `CCOCC1(CCc2ccccc2)CCN(c2ccc(N(C)C)cc2)CC1` [Compound 127, 4-(4-(ethoxymethyl)-4-phenethylpiperidin-1-yl)-N,N-dimethylaniline], which ED50 is on record?
A: > 10 mg/kg

Q: `CCOCC1(CCc2ccccc2)CCN(Cc2ccc(CCOC)cc2)CC1` [Compound 128, 4-(ethoxymethyl)-1-(4-(2-methoxyethyl)benzyl)-4-phenethylpiperidine] was tested. Which ED50 did it give?
A: > 10 mg/kg

Q: For `CCOCC1(CCc2ccccc2)CCN(Cc2ccc(COC)cc2)CC1` [Compound 129, 4-(ethoxymethyl)-1-(4-(methoxymethyl)benzyl)-4-phenethylpiperidine HC], which ED50 is on record?
A: > 10 mg/kg

Q: With `CCOCC1(CCc2ccccc2)CCN(Cc2cc(C)c(NC(C)=O)c(C)c2)CC1` [Compound 130] as the compound, how does the ED50 read?
A: > 10 mg/kg

Q: `CCOCC1(CCc2ccccc2)CCN(Cc2ccc(CC(C)=O)cc2)CC1` [Compound 131, 1-(4-((4-(ethoxymethyl)-4-phenethylpiperidin-1-yl)methyl)phenyl)propan-2-one] was tested. Which ED50 did it give?
A: > 10 mg/kg

Q: `CCOCC1(COCc2ccccc2)CCN(Cc2ccc(NC(C)=O)cc2)CC1.Cl` [Compound 132, N-(4-((4-(benzyloxymethyl)-4-(ethoxymethyl)piperidin-1-yl)methyl)phenyl)acetamide HCl] was tested. Which ED50 did it give?
A: > 10 mg/kg

Q: Which ED50 does the source give for `CCOC(=O)C1(CCc2ccccc2)CCCN(Cc2ccc(NC(C)=O)cc2)CC1` (centres unmarked) [Compound 133, ethyl 1-(4-acetamidobenzyl)-4-phenethylazepane-4-carboxylate] here?
A: > 10 mg/kg

Q: Which ED50 does the source give for `CCOCC1(CCc2ccccc2)CCN(Cc2ccc(-c3nccs3)cc2)CC1` [Compound 134, 2-(4-((4-(ethoxymethyl)-4-phenethylpiperidin-1-yl)methyl)phenyl)thiazole] here?
A: > 10 mg/kg

Q: Which ED50 does the source give for `CCOCC1(CCc2ccccc2)CCN(Cc2ccc(-c3nc(C)no3)cc2)CC1.Cl` [Compound 135, 5-(4-((4-(ethoxymethyl)-4-phenethylpiperidin-1-yl)methyl)pheny)-3-methyl-1,2,4-oxadiazole HCl] here?
A: > 10 mg/kg

Q: For `CCOCC1(CCc2ccccc2)CCN(Cc2ccc(-c3ncon3)cc2)CC1.Cl` [Compound 136, 3-(4-((4-(ethoxymethyl)-4-phenethylpiperidin-1-yl)methyl)phenyl)-1,2,4-oxadiazole HCl], which ED50 is on record?
A: > 10 mg/kg

Q: `CCOCC1(CCc2ccccc2)CCN(Cc2ccc(-c3nnco3)cc2)CC1` [Compound 137, 2-(4-((4-(ethoxymethyl)-4-phenethylpiperidin-1-yl)methyl)phenyl)-1,3,4-oxadiazole] was tested. Which ED50 did it give?
A: > 10 mg/kg

Q: For `CCOCC1(CCc2ccccc2)CCN(Cc2ccc(-c3nncs3)cc2)CC1` [Compound 138, 2-(4-((4-(ethoxymethyl)-4-phenethylpiperidin-1-yl)methyl)phenyl)-1,3,4-thiadiazole], which ED50 is on record?
A: > 10 mg/kg

Q: For `CCOCC1(CCc2ccccc2)CCN(Cc2ccc(-c3cncs3)cc2)CC1` [Compound 139, 5-(4-((4-(ethoxymethyl)-4-phenethylpiperidin-1-yl)methyl)phenyl)thiazole], which ED50 is on record?
A: > 10 mg/kg

Q: For `CCOCC1(CCc2ccccc2)CCN(Cc2ccc(-c3ncc[nH]3)cc2)CC1` [Compound 140, 1-(4-(1H-imidazol-2-yl)benzyl)-4-(ethoxymethyl)-4-phenethylpiperidine], which ED50 is on record?
A: > 10 mg/kg

Q: With `CCOCC1(CCc2ccccc2)CCN(Cc2ccc(-c3cnc[nH]3)cc2)CC1` [Compound 141, 1-(4-(1H-imidazol-5-yl)benzyl)-4-(ethoxymethyl)-4-phenethylpiperidine] as the compound, how does the ED50 read?
A: > 10 mg/kg

Q: How did the ED50 turn out when `CCOCC1(CCc2ccccc2)CCN(Cc2ccc(CC(=O)O)cc2)CC1` [Compound 142, 2-(4-((4-(ethoxymethyl)-4-phenethylpiperidin-1-yl)methyl)phenyl)acetic acid] was run?
A: > 10 mg/kg

Q: `CCOCC1(CCc2ccccc2)CCN(Cc2ccc(CC(=O)N(C)OC)cc2)CC1` [Compound 143, 2-(4-((4-(ethoxymethyl)-4-phenethylpiperidin-1-yl)methyl)phenyl)-N-methoxy-N-methylacetamide] was tested. Which ED50 did it give?
A: > 10 mg/kg

Q: With `CCOCC1(CCc2ccccc2)CCN(Cc2ccc(C(=O)OC)cc2)CC1` [Compound 144, methyl 4-((4-(ethoxymethyl)-4-phenethylpiperidin-1-yl)methyl)benzoate] as the compound, how does the ED50 read?
A: > 10 mg/kg

Q: How did the ED50 turn out when `CCOCC1(CCc2ccccc2)CCN(Cc2ccc(C(=O)O)cc2)CC1` [Compound 145, 4-((4-(ethoxymethyl)-4-phenethylpiperidin-1-yl)methyl)benzoic acid] was run?
A: > 10 mg/kg

Q: For `CCOCC1(CCc2ccccc2)CCN(Cc2ccc(C(C)=O)cc2)CC1` [Compound 146, 1-(4-((4-(ethoxymethyl)-4-phenethylpiperidin-1-yl)methyl)phenyl)ethanone], which ED50 is on record?
A: > 10 mg/kg

Q: `CCOCC1(CCc2ccsc2)CCN(Cc2ccc(NC(C)=O)cc2)CC1` [Compound 147, N-(4-((4-(ethoxymethyl)-4-(2-(thiophen-3-yl)ethyl)piperidin-1-yl)methyl)phenyl)acetamide] was tested. Which ED50 did it give?
A: < 10 mg/kg

Q: Which ED50 does the source give for `CCOCC1(CCc2ccc3ccccc3c2)CCN(Cc2ccc(NC(C)=O)cc2)CC1` [Compound 148, N-(4-((4-(ethoxymethyl)-4-(2-(naphthalen-2-yl)ethyl)piperidin-1-yl)methyl)phenyl)acetamide] here?
A: > 10 mg/kg

Q: With `CCOCC1(CCc2ccccn2)CCN(Cc2ccc(NC(C)=O)cc2)CC1` [Compound 149, N-(4-((4-(ethoxymethyl)-4-(2-(pyridin-2-yl)ethyl)piperidin-1-yl)methyl)phenyl)acetamide] as the compound, how does the ED50 read?
A: > 10 mg/kg

Q: Which ED50 does the source give for `CCOCC1(CCc2ccccc2)CCN(Cc2ccc(Br)cc2)CC1` [Compound 150, 1-(4-bromobenzyl)-4-(ethoxymethyl)-4-phenethylpiperidine] here?
A: > 10 mg/kg

Q: How did the ED50 turn out when `CCOCC1(CCc2ccccc2)CCN(Cc2ccc(C#N)cc2)CC1` [Compound 151, 4-((4-(ethoxymethyl)-4-phenethylpiperidin-1-yl)methyl)benzonitrile] was run?
A: > 10 mg/kg

Q: With `CCOCC1(CCc2ccccc2)CCN(Cc2ccc(B3OC(C)(C)C(C)(C)O3)cc2)CC1` [Compound 152, 4-(ethoxymethyl)-4-phenethyl-1-(4-(4,4,5,5-tetramethyl-1,3,2-dioxaborolan-2-yl)benzyl)piperidine] as the compound, how does the ED50 read?
A: > 10 mg/kg

Q: How did the ED50 turn out when `CCOCC1(CCc2ccccc2)CCN(Cc2ccc(-c3cn[nH]n3)cc2)CC1` [Compound 153, 1-(4-(2H-1,2,3-triazol-4-yl)benzyl)-4-(ethoxymethyl)-4-phenethylpiperidine] was run?
A: > 10 mg/kg

Q: How did the ED50 turn out when `CCOCC1(CCc2ccccc2)CCN(Cc2ccc(-c3nnn[nH]3)cc2)CC1.Cl` [Compound 154, 1-(4-(1H-tetrazol-5-yl)benzyl)-4-(ethoxymethyl)-4-phenethylpiperidine HCl] was run?
A: > 10 mg/kg

Q: Which ED50 does the source give for `CCOCC1(CCc2ccccc2)CCN(Cc2ccc(-c3n[nH]c(=O)[nH]3)cc2)CC1` [Compound 155, 3-(4-((4-(ethoxymethyl)-4-phenethylpiperidin-1-yl)methyl)phenyl)-1H-1,2,4-triazol-5(4H)-one] here?
A: > 10 mg/kg

Q: `CCOCC1(CCc2ccccc2)CCN(Cc2ccc(C(C)O)cc2)CC1.Cl` (centres unmarked) [Compound 156, 1-(4-((4-(ethoxymethyl)-4-phenethylpiperidin-1-yl)methyl)phenyl)ethanol HCl] was tested. Which ED50 did it give?
A: > 10 mg/kg

Q: For `CCOCC1(CCc2ccccc2)CCN(Cc2ccc(-n3ccnn3)cc2)CC1` [Compound 157], which ED50 is on record?
A: > 10 mg/kg

Q: With `CCOCC1(CCc2ccccc2)CCN(Cc2ccc(-n3nccn3)cc2)CC1` [Compound 158] as the compound, how does the ED50 read?
A: > 10 mg/kg

Q: For `CCOC(C)C1(CCc2ccccc2)CCN(Cc2ccc(NC(C)=O)cc2)CC1.Cl` (centres unmarked) [Compound 159, N-(4-((4-(1-ethoxyethyl)-4-phenethylpiperidin-1-yl)methyl)phenyl)acetamide HCl], which ED50 is on record?
A: > 10 mg/kg

Q: How did the ED50 turn out when `CC(=O)Nc1ccc(CN2CCC(CCc3ccccc3)(C3CCC(C)O3)CC2)cc1` (centres unmarked) [Compound 160, N-(4-((4-(5-methyltetrahydro-furan-2-yl)-4-phenethylpiperidin-1-yl)methyl)phenyl)acetamide] was run?
A: < 10 mg/kg

Q: `CCOCC1(CCc2ccccc2)CCN(Cc2ccc(CC(N)=O)cc2)CC1` [Compound 161, 2-(4-((4-(ethoxymethyl)-4-phenethylpiperidin-1-yl)methyl)phenyl)acetamide] was tested. Which ED50 did it give?
A: > 10 mg/kg
